Source: patent publication US4348410A, “Cyclohexane carboxylic acid derivatives” (Nippon Chemiphar Co., Ltd., priority 1979, dated 1982)

Columns and labels:
[1] = tested on: carrageenin-induced inflammation; test: Carrageenin-induced inflammation; details: Rattus norvegicus, ip, read-out: ED50, inhibition of carrageenin-induced inflammation
[2] = tested on: plasmin; details: A. Okano et al, J. Med. Chem., Vol. 15, No. 3, 247 (1972); cited from earlier work
[3] = molecular target: T1, trypsin (Bos taurus, UniProt P00760); test: Inhibitory effects on trypsin (hydrolysis of p-tosylarginine methyl ester); assay type: biochemical; details: 37° C., 10 minutes; concentration not given
T1 sequence (P00760 24-246): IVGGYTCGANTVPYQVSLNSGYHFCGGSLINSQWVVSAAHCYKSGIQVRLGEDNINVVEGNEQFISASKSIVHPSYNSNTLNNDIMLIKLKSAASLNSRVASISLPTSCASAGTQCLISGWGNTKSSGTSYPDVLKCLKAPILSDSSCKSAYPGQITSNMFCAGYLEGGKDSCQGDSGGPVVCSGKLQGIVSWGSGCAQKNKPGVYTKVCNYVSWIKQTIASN
Description: In particular, inhibitory effects of the compounds on hydrolysis of p-tosylarginine methyl ester by trypsin were examined (incubated at 37° C. for 10 minutes).

[4] = molecular target: chymotrypsin (Bos taurus, UniProt P00766); test: Inhibitory effects on chymotrypsin (hydrolysis of N-acetyl-L-tyrosine ethyl ester); assay type: biochemical; details: 37° C., 10 minutes; concentration not given
Description: The compounds of the formula (I) have excellent inhibitory effects on protease. The inhibitory effects were determined by the following methods: Inhibitory effects on the compounds of chymotrypsin were determined according to the method described by M. […] In particular, inhibitory effects of the compounds on hydrolysis of N-acetyl-L-tyrosine ethyl ester by chymotrypsin were examined (incubated at 37° C. for 10 minutes).

[5] = molecular target: thrombin (Bos taurus, UniProt P00735); test: Inhibitory effects on thrombin (hydrolysis of p-tosylarginine methyl ester); assay type: biochemical; details: 37° C., 10 minutes; concentration not given
Description: The compounds of the formula (I) have excellent inhibitory effects on protease. The inhibitory effects were determined by the following methods:
Inhibitory effects of the compounds on thrombin were determined according to the method described by M. Muramatsu et al (The Journal of Biochemistry, Volume 65 (1), 17 (1969)). In particular, inhibitory effects of the compounds on hydrolysis of p-tosylarginine methyl ester by thrombin were examined (incubated at 37° C. for 10 minutes).

[6] = molecular target: urokinase (Homo sapiens, UniProt P00749); test: Inhibitory effects on urokinase (hydrolysis of N-acetylglycyl lysine methyl ester); assay type: biochemical; details: 37° C., 10 minutes; concentration not given
Description: The compounds of the formula (I) have excellent inhibitory effects on protease. The inhibitory effects were determined by the following methods: Inhibitory effects of the compounds on urokinase were determined according to the method described by A. J. Joeson et al (Throm. […]. 21, 259-272 (1969)). In particular, inhibitory effects of the compounds on hydrolysis of N-acetylglycyl lysine methyl ester by urokinase were determined (incubated at 37° C. for 10 minutes).

[7] = tested on: Shay ulcers; test: Shay ulcers (pylorus ligation); assay type: in vivo, Male Sprague-Dawley strain rats; details: for Ulcer Grade 0 (number of rats): 0=no lesion; for Ulcer Grade 1 (number of rats): 1=hemorrhagic suffusion; for Ulcer Grade 2 (number of rats): 2=1-5 small ulcers (<3 mm); for Ulcer Grade 3 (number of rats): 3=many small ulcers (more than 5) or 1 ulcer of marked size; for Ulcer Grade 4 (number of rats): 4=many ulcers of marked size; for Ulcer Grade 5 (number of rats): 5=perforated ulcer
Description: The rats were sacrificed 18 hours later by an overdose of ether and the stomach removed. The stomach was incised along the greater curvature and the surface area of each lesion in forestomach was measured by the naked eye. […] 4=many ulcers of marked size 5=perforated ulcer The test drugs were given intraperitoneally, immediately after pylorus ligation.

[8] = tested on: ileum of a guinea pig; test: Anti-histamine effect: contraction of ileum induced by histamin dihydrochloride; details: 1~5 μg; 10^-6 g/ml histamin dihydrochloride
[9] = tested on: ileum of a guinea pig, sensitized with egg albumin; test: Contraction of ileum of a guinea pig sensitized with egg albumin, antigen-induced; details: 0.50 μg; with 250 μg/ml egg albumin as antigen
[10] = tested on: acetic acid ulcers; test: Acetic acid ulcers; assay type: in vivo, Male Sprague-Dawley strain rats; details: for Ulcer Grade 1 (number of rats): ulcer area 0-10 mm^2; for Ulcer Grade 2 (number of rats): ulcer area 11-20 mm^2; for Ulcer Grade 3 (number of rats): ulcer area 21-30 mm^2; for Ulcer Grade 4 (number of rats): ulcer area 31-40 mm^2; for Ulcer Grade 5 (number of rats): ulcer area >40 mm^2
Description: Male Sprague-Dawley strain rats, weighing about 200 g were used. Under ether anesthesia 10% acetic acid solution (0.05 ml) was injected carefully between the serous membrane and the muscle near the pylorus, and the abdomen was closed. Thereafter, the animals were maintained under conditions and administered 1 ml/100 g of each test drug dissolved or suspended in 0.5% carboxymethylcellulose solution p.o. daily×10 starting from the next day of the operation. On the 11th day, the rats were sacrificed under ether anesthesia, and the stomachs were removed. The area of the ulcer was measured and graded into 5 degrees as an ulcer index according to the following method: […]

For `N=C(N)NC[C@H]1CC[C@H](C(=O)Oc2ccccc2)CC1`, the ED50 [1] was ~200 mg/kg.

For `N=C(N)NCC1CCC(C(=O)O)CC1` (stereo not shown) [4-guanidinomethylcyclohexanecarboxylic acid], the anti-plasmin effects [2] is listed as “little anti-plasmin effects”.

With `Cl.N=C(N)NC[C@H]1CC[C@H](C(=O)Oc2ccccc2)CC1` [Compound 3] the “Inhibition (%) Trypsin” value [3] was 42%, the “Inhibition (%) Chymotrypsin” value [4] was 48% and the “Inhibition (%) Thrombin” value [5] was 30%. For the same compound, the “Inhibition (%) Urokinase” value [6] was 52%, the “Ulcer Grade 0 (number of rats)” value ([7]; 400 mg/kg i.p.) was 11 and the “Ulcer Grade 1 (number of rats)” value ([7]; 400 mg/kg i.p.) was 4. For the same compound, the “Ulcer Grade 2 (number of rats)” value ([7]; 400 mg/kg i.p.) was 5, the “Ulcer Grade 3 (number of rats)” value ([7]; 400 mg/kg i.p.) was 0 and the “Ulcer Grade 4 (number of rats)” value ([7]; 400 mg/kg i.p.) was 0. For the same compound, the “Ulcer Grade 5 (number of rats)” value ([7]; 400 mg/kg i.p.) was 0, the “inhibition of the contraction of the ileum induced by histamin dihydrochloride” value [8] was “inhibited completely” and the “inhibition of the contraction of the ileum sensitized with egg albumin” value [9] was “inhibited completely”.

For `Cl.NC[C@H]1CC[C@H](C(=O)Oc2ccc(CCC(=O)O)cc2)CC1` [Compound A, 4(2hydroxycarbonylethyl)phenyl trans4-aminomethylcyclohexanecarboxylate hydrochloride, reference compound], the “Inhibition (%) Trypsin” value [3] was 65%, the “Inhibition (%) Chymotrypsin” value [4] was 0% and the “Inhibition (%) Thrombin” value [5] was 30%. For the same compound, the “Inhibition (%) Urokinase” value [6] was 32%, the “Ulcer Grade 0 (number of rats)” value ([7]; 150 mg/kg i.p.) was 2 and the “Ulcer Grade 1 (number of rats)” value ([7]; 150 mg/kg i.p.) was 0. The “Ulcer Grade 2 (number of rats)” value ([7]; 150 mg/kg i.p.) was 3, the “Ulcer Grade 3 (number of rats)” value ([7]; 150 mg/kg i.p.) was 1 and the “Ulcer Grade 4 (number of rats)” value ([7]; 150 mg/kg i.p.) was 4. For the same compound, the “Ulcer Grade 5 (number of rats)” value ([7]; 150 mg/kg i.p.) was 0, the “Ulcer Grade 0 (number of rats)” value ([7]; 300 mg/kg i.p.) was 6 and the “Ulcer Grade 1 (number of rats)” value ([7]; 300 mg/kg i.p.) was 0. The “Ulcer Grade 2 (number of rats)” value ([7]; 300 mg/kg i.p.) was 0, the “Ulcer Grade 3 (number of rats)” value ([7]; 300 mg/kg i.p.) was 1 and the “Ulcer Grade 4 (number of rats)” value ([7]; 300 mg/kg i.p.) was 2. The “Ulcer Grade 5 (number of rats)” value ([7]; 300 mg/kg i.p.) was 1, the “Ulcer Grade 1 (number of rats)” value ([10]; 250 mg/kg p.o. daily×10) was 4 and the “Ulcer Grade 2 (number of rats)” value ([10]; 250 mg/kg p.o. daily×10) was 8. For the same compound, the “Ulcer Grade 3 (number of rats)” value ([10]; 250 mg/kg p.o. daily×10) was 3, the “Ulcer Grade 4 (number of rats)” value ([10]; 250 mg/kg p.o. daily×10) was 2 and the “Ulcer Grade 5 (number of rats)” value ([10]; 250 mg/kg p.o. daily×10) was 0. For the same compound, the “Ulcer Grade 1 (number of rats)” value ([10]; 300 mg/kg p.o. daily×10) was 2, the “Ulcer Grade 2 (number of rats)” value ([10]; 300 mg/kg p.o. daily×10) was 2 and the “Ulcer Grade 3 (number of rats)” value ([10]; 300 mg/kg p.o. daily×10) was 2. The “Ulcer Grade 4 (number of rats)” value ([10]; 300 mg/kg p.o. daily×10) was 1, the “Ulcer Grade 5 (number of rats)” value ([10]; 300 mg/kg p.o. daily×10) was 1 and the “Ulcer Grade 1 (number of rats)” value ([10]; 500 mg/kg p.o. daily×10) was 7. The “Ulcer Grade 2 (number of rats)” value ([10]; 500 mg/kg p.o. daily×10) was 6, the “Ulcer Grade 3 (number of rats)” value ([10]; 500 mg/kg p.o. daily×10) was 1 and the “Ulcer Grade 4 (number of rats)” value ([10]; 500 mg/kg p.o. daily×10) was 0. For the same compound, the “Ulcer Grade 5 (number of rats)” value ([10]; 500 mg/kg p.o. daily×10) was 1.

For `NC[C@H]1CC[C@H](C(=O)O)CC1` [Tranexamic acid, trans-4-aminomethylcyclohexane carboxylic acid], the anti-plasmin effects [2] is listed as “excellent anti-plasmin effects”.
